Experimental findings from ChEMBL document CHEMBL5634144, “Design, synthesis and biological evaluation of novel DCLK1 inhibitor containing purine skeleton for the treatment of pancreatic cancer” (Eur J Med Chem, 2023) are described below.

Active and inactive are the calls of the source. The calls are words filed in the database; no cut-off is given here.

Assay [1] concerns the target T1, Serine/threonine-protein kinase DCLK1 (Homo sapiens, UniProt O15075).
T1 sequence (O15075 whole entry): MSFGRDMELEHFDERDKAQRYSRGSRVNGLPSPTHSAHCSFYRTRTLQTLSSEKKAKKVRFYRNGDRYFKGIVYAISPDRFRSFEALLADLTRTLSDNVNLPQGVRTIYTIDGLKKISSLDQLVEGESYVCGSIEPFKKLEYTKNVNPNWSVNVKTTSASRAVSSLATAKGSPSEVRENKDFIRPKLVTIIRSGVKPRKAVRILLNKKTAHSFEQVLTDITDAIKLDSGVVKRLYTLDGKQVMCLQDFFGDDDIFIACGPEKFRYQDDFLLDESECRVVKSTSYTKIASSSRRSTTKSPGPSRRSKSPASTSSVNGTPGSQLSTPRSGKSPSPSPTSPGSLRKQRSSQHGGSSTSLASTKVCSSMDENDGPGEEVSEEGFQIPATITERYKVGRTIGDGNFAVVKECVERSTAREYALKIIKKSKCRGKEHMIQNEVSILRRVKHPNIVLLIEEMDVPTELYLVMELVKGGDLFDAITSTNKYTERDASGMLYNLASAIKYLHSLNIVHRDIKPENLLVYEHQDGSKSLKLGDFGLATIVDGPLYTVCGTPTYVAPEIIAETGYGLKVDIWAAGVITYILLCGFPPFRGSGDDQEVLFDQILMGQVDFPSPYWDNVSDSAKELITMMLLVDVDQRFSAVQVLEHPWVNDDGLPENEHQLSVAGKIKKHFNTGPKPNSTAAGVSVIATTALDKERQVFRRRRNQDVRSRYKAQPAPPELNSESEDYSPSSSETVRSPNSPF
Briefly: Inhibition of DCLK1 (unknown origin) preincubated for 10 mins followed by substrate/ATP addition measured after 60 mins by mobility shift assay.

Assay [2] has as its target T1, Serine/threonine-protein kinase DCLK1. Briefly: Inhibition of DCLK1 (unknown origin) in presence of 33P-ATP.
For assay [3], the system named is SW1990. Briefly: Antiproliferative activity against human SW1990 cells assessed as inhibition cell proliferation incubated for 6 days by MTT assay. It is filed as functional, cell-based. The note with it: SW1990, 144 h.
For a further assay, the system named is HCT-116. Briefly: Antiproliferative activity against human HCT-116 cells assessed as inhibition cell proliferation incubated for 6 days by MTT assay. In kind it is functional, cell-based. The conditions noted are these: HCT-116, 144 h. (Tetrazolium assays rely on reduction of a dye to a coloured formazan, in cell work by metabolically active cells.)
Another assay deals with CAKI-1. Briefly: Antiproliferative activity against human CAKI-1 cells assessed as inhibition cell proliferation incubated for 6 days by MTT assay. It is filed as functional, cell-based. The note with it: CAKI-1, 144 h.
Assay [4] relates to SW1990. Briefly: Induction of apoptosis in human SW1990 cells assessed as viable cells at 10 uM incubated for 6 days by Annexin V/PI staining based flow cytometry (reference value: 92.93 %). It is filed as functional. The conditions noted are these: SW1990, 144 h, time 6 day, read-out: Activity.
Assay [5] deals with SW1990. Briefly: Induction of apoptosis in human SW1990 cells assessed as early apoptotic cells at 10 uM incubated for 6 days by Annexin V/PI staining based flow cytometry (reference value: 4.55 %). It is filed as functional. The conditions noted are these: time 6 day. Background: A flow cytometer gives signals particle by particle.
Assay [6] has as its system SW1990. Briefly: Induction of apoptosis in human SW1990 cells assessed as late apoptotic cells at 10 uM incubated for 6 days by Annexin V/PI staining based flow cytometry (reference value: 2.01 %). In kind it is functional. The conditions noted are these: time 6 day.
The subject of assay [7] is SW1990. Briefly: Induction of apoptosis in human SW1990 cells assessed as necrotic cells at 10 uM incubated for 6 days by Annexin V/PI staining based flow cytometry (reference value: 0.50 %). It is filed as functional. The note with it: time 6 day.
Assay [8] relates to SW1990. Briefly: Induction of cell cycle arrest at G0/G1 phase in human SW1990 cells at 10 uM incubated for 6 days by PI staining based flow cytometry (reference value: 49.65 %). In kind it is functional. The conditions noted are these: time 6 day.
Assay [9] deals with SW1990. Briefly: Induction of cell cycle arrest at S phase in human SW1990 cells at 10 uM incubated for 6 days by PI staining based flow cytometry (reference value: 21.20 %). In kind it is functional. The note with it: time 6 day.
The subject of assay [10] is SW1990. Briefly: Induction of cell cycle arrest at G2/M phase in human SW1990 cells at 10 uM incubated for 6 days by PI staining based flow cytometry (reference value: 29.15 %). It is filed as functional. The conditions noted are these: time 6 day.
Assay [11] deals with SW1990. Briefly: Inhibition of cell invasion in human SW1990 cells at 10 uM by transwell assay. In kind it is functional, cell-based.
Assay [12] concerns SW1990. Briefly: Inhibition of cell migration in human SW1990 cells at 10 uM by transwell assay. It is filed as functional, cell-based.
Assay [13] concerns SW1990. Briefly: Antitumor activity against human SW1990 cells xenografted in BALB/c nude mouse model assessed as tumor growth inhibition at 60 mg/kg, ip for 21 days consecutively relative to control. The conditions noted are these: SW1990, 504 h, time 21 day, read-out: TGI. In kind it is functional. On the technique in general: In xenograft studies the graft and the host belong to different species.

As to `COc1ccccc1Nc1nc(Nc2ccccc2S(=O)(=O)C(C)C)c2nc[nH]c2n1`, the IC50 – broadly, the concentration that inhibits the measured activity by half – in [1] amounted to 0.171 µM.

As to `COc1cc(N2CCN(C)CC2)ccc1Nc1ncc2c(n1)N(C)c1ccccc1C(=O)N2CC(F)(F)F`, the IC50 is 0.0572 µM in assay [2]; 0.0379 µM in assay [1]; 14 µM in the assay with SW1990 [3]; 6.2 µM in the assay with HCT-116; 12.2 µM in the assay on CAKI-1. Moreover, the viability at 10 µM with SW1990 [4] was 60.6%. The Activity was found to be 18.23% in the assay on SW1990 [5]; 12.13% in the assay with SW1990 [6]; 8.99% in the assay with SW1990 [7]; 61.36% in the assay on SW1990 [8]; 16.89% in the assay on SW1990 [9]; 21.75% in the assay on SW1990 [10]. Further, the inhibition result in the assay on SW1990 [11] and in the assay on SW1990 [12] was “Active” throughout. Further, in the assay on SW1990 [13], the inhibition in vivo at 60 mg/kg was 24.8%.
